Laboratory results: US7528151B2, “Heterocyclic urea derivatives for the treatment of pain” (Glaxo Group Limited, priority 2003, dated 2009)
Structures can show the parent of a compound that is named as a salt.

Biological target: T1, human VR1 (Homo sapiens, UniProt Q8NER1)
T1 construct: expressed in transfected cells
Assay: FLIPR based calcium assay, capsaicin-induced response in 1321N1 cells stably expressing human VR1
Type: cell-based
Conditions: antagonism of capsaicin response; pKb generated from IC50 using the Cheng-Prusoff equation
Description: Transfected astrocytoma 1321N1 cells, stably expressing human VR1, were seeded into FLIPR plates at 25,000cells/well (96-well plate) and cultured overnight. The cells were subsequently loaded in medium containing 4 μM Fluo-3 AM (Molecular Probes) for 2 hours, at room temperature, in the dark. The plates were then washed 4 times with Tyrode containing 1.5 mM calcium, without probenecid. The cells were pre-incubated with compound or buffer control at room temperature for 30 minutes. Capsaicin (Sigma) was then added to the cells. Compounds having antagonist activity against the human VR1 were identified by detecting differences in fluorescence when measured after capsaicin addition, compared with no compound buffer controls.

T1 sequence (Q8NER1 whole entry): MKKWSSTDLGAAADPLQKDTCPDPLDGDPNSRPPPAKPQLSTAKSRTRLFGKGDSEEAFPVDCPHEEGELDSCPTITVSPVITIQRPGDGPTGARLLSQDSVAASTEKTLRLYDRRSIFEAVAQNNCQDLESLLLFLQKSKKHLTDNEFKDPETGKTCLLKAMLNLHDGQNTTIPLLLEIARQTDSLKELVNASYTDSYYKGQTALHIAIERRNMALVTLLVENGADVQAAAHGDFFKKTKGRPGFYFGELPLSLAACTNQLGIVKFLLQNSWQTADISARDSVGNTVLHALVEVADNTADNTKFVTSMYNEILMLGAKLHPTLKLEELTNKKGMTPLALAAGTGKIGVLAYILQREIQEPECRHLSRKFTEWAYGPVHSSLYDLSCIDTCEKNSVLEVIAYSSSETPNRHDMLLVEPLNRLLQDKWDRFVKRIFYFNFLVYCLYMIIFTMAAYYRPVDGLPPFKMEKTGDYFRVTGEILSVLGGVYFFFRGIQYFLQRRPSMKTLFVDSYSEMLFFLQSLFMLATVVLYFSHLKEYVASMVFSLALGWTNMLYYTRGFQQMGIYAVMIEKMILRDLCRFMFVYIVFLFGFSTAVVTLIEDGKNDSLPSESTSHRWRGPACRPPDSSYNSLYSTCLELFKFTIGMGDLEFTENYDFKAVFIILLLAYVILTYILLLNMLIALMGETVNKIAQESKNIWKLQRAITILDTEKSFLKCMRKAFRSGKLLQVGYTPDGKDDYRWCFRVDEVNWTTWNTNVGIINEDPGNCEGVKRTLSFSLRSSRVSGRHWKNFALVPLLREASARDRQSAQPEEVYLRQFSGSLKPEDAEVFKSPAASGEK

Structure (SMILES)	Kb [nM]
Cc1nccc2c(NC(=O)NC3CCN(c4ncc(C(F)(F)F)cc4Cl)CC3)cccc12 [Example 1, 1-([3-Chloro-5-trifluoromethylpyridinyl-2-yl]piperidin-4-yl)-3-(1-methyl-isoquinolin-5-yl)-urea hydrochloride]	< 100
COc1nc(N2CCC(NC(=O)Nc3cccc4c(C)nccc34)CC2)ccc1C(F)(F)F [Example 2, 1-([6-Methoxy-5-trifluoromethylpyridinyl-2-yl]piperidin-4-yl)-3-(1-methyl-isoquinolin-5-yl)-urea hydrochloride]	< 100
